Experimental findings from patent US3998963A, “Tertiary butyl substituted carbamoyl oxime pesticides” (priority 1975, dated 1976) are described below.

Common to all, as to format: in vivo
Series [1] has as its system southern armyworm (Spodoptera eridania, (Cram.)). Nature of the series: Armyworm Immersion Test. Particulars: for LC50: Spodoptera eridania, 72 h, immersion (contact), 3 days, read-out: Imm LD50, Armyworm; for contact vs stomach poison, army worm (in words): immersion vs bait; for (Imm/Bait), Armyworm: ratio immersion/bait LD50. The procedure: (§1) Suspensions of the test compouns were prepared by dissolving one gram of compound in 50 milliliters of acetone in which had been dissolved 0.1 gram (10 percent of the weight of compound) of an alkylphenoxy polyethoxyethanol surfactant, as an emulsifying or dispersing agent. The resulting solution was mixed into 150 milliliters of water to give roughly 200 milliliters of a suspension containing the compound in finely divided form. The thus-prepared stock suspension contained 0.5 percent by weight of compound. The test concentrations in parts per million by weight employed in the tests described hereinbelow were obtained by appropriate dilutions of the stock suspension with water. The test procedures were as follows:
The test organism used was the fourth instar larvae of the southern armyworm (Spodoptera eridania, (Cram.)) reared on Tendergreen beans in a room where temperature was held at 80° ± 5° F. and relaitve humidity 50 ± 5 percent.
Ten randomly selected larvae were thoroughly wetted in a formulated mixture of the chemical (50 ml) by pouring the insects and formulation from one beaker to another six times. Excess liquid was removed by transferring the larvae to paper towels. An equivalent amount of a water solution containing acetone and emulsifier in the same concentrations as the insecticidal mixture but without the candidate insecticide was applied in the same manner as a controls for the experiment. When dry, 5 larvae were placed in each of two 9-cm Petri dishes lined with filter paper and containing one fully expanded Tendergreen bean leaf per dish as food.
The closed dishes were held at 80°-85° F. for 3 days. Although the larvae can easily consume the whole leaf within 24 hours, no more food was added. Check larvae remained vigorous during the entire holding period. At the end of the holding period larvae which were unable to move the length of the body, even upon stimulation, were considered dead.
(§2) In Table 1 are presented insect and rat toxicity data (bait tests) on a comparative basis of the compounds described above. […] Rat toxicity is also more meaningfully compared on the basis of molar weight LD50 values. The relative efficacy of the parent compounds as compared to the previously known derivatives and as compared to the new compounds of this invention is also shown in Table 1. The ratio of efficacy as contact poisons (immersion/bait) of the compounds tested against Armyworm and House Fly is presented in Table 2 along with the results of the phytotoxicity tests of the compounds on bean, corn, tomato and cotton.

Series [2] has as its system two-spotted mite (Tetranychus urticae Koch). The experiment in a line: Mite Foliage Spray Test. The conditions noted are these: foliar, 144 h, 6 days, read-out: Insect LD50, Mite. As for the experimental part:
as §1
Adults and nymphal stage of the two-spotted mite (Tetranychus urticae Koch), reared on Tendergreen bean plants at 80±5 per cent relative humidity, were the test organisms. Infested leaves from a stock culture were placed on the primary leaves of two bean plants 6 to 8 inches in height, growing in a 21/2 inch clay pot. 150-200 Mites, a sufficient number for testing, transferred from the excised leaves to the fresh plants in a period of twenty four hours. Following the twenty four hour transfer period, the excised leaves were removed from the infested plants. The test compounds were formulated by diluting the stock suspension with water to give a suspension containing 500 parts of test compound per million parts of final formulation. The potted plants (one pot per compound) were placed on a revolving turntable and sprayed with 100-110 milliliters of test compound formulation by use of a DeVilbiss spray gun set at 40 psig. air pressure. This application, which lasted 25 seconds, was sufficient to wet the plants to run-off. As a control, 100-110 milliliters of a water solution containing acetone and emulsifier in the same concentrations as the test compound formulation, but containing no test compound, were also sprayed on infested plants. The sprayed plants were held at 80±5 per cent relative humidity for 6 days, after which a mortality count of motile forms was made. Microscopic examination for motile forms was made on the leaves of the test plants. Any individual which was capable of locomotion upon prodding was considered living.

Series [3] deals with cotton. The experiment in a line: Phytotoxicity Test, cotton. The conditions noted are these: for Phytotoxicity, Cotton: 2500 parts per million, ten days; for phytotoxicity to cotton (in words): text statement. The procedure: as §1
Experiments were also conducted to determine the phytotoxicity of representative compositions with respect to healthy fresh plants. Solutions of the compounds were prepared as described above to provide a concentration of 2500 parts per million of the test compound. The test plants were sprayed in accordance with the procedure described above for the Mite Foliage Spray Test so as to deliver approximately 100 milliliters of test solution to the leaves of each plant tested. The sprayed plants and controls were set aside for approximately one hour to allow the foliage to dry and were then placed in the greenhouse. After ten days the plants were visually inspected to determine the extent of foliage injury. A rating of 1 indicates no perceptible injury; 5 indicates the plant was dead and ratings of 2, 3 and 4 indicate intermediate degrees of injury based upon the number and extent to which leaves were injured.

Series [4] has as its system Mexican bean beetle (Epilachna varivestis, Muls.). The experiment in a line: Mexican Bean Beetle Leaf Spray Test. The conditions noted are these: 72 h, 3 days, read-out: Insect LD50, Beetle. The procedure:
as §1
Mexican Bean Beetle Leaf Spray Test
Fourth instar lavae of the Mexican bean beetle (Epilachna varivestis, Muls.), reared on Tendergreen bean plants at a temperature of 80°±5° F. and 50±5 per cent relative humidity, were the test insects.
The test compounds were formulated by diluting the stock suspension with water to give a suspension containing 500 parts of test compound per million parts of final formulation. Potted Tendergreen bean plants of standard height and age were placed on a revolving turntable and sprayed with 100-110 milliliters of test comound formulation by use of a DeVilbiss spray gun set at 10 psig air pressure. This application, which lasted 25 seconds, was sufficient to wet plants to run-off. As a control, 100-110 milliliters of a water-acetone-emulsifier solution containing no test compound were also sprayed on infested plants. When dry, the paired leaves were separated and each was placed in a 9 centimeter Petri dish lined with moistened filter paper. Five randomly selected larvae were introduced into each dish, and the dishes were closed. The closed dishes were labeled and held at a temperature of 80°±5° F, for 3 days. Although the larvae could easily consume the leaf within 24 to 48 hours, no more food was added. Larvae which were unable to move the length of the body, even upon stimulation, were considered dead.

Series [5] is described as follows: Mammalian Toxicity (peroral, rat). Particulars: rat, in vivo, po, peroral. The procedure:
(§3) These compositions were also evaluated to determine their peroral toxicity to mammals by conventional methods. The animal selected for this experiment was the rat. The test results obtained are expressed in terms of the number of milligrams of composition per kilogram of weight of the animal required to achieve a mortality rate of 50 percent (LD50).
as §2

Series [6] relates to rat. The experiment in a line: Mammalian Toxicity (peroral, rat). The conditions noted are these: for (b) relative value of derivative vs parent compound, Rat LD50: peroral, formula of footnote b is drawing 8; for mammalian toxicity (in words): text statement. As for the experimental part: as §3, §2
Setting [7] is: Table II, read-out: Rat Tox. LD50.
The mark [8] stands for this setting: molar weight LD50, Table I, read-out: Rat LD50/mole wt. [a].

Values after ≈ are worked out from the molar mass of the structure shown. Like-named read-outs stand apart in the source and are kept apart here.

As to `CNC(=O)ON=C(C)SC` [Compound 1, O-(methylcarbamoyl) S-methyl acetothiolhydroximate], the LC50 in series [1] was 8 µg/mL (≈ 49.3 µM); in series [2], 500 µg/mL (≈ 3080 µM); in series [4], 70 µg/mL (≈ 432 µM). In series [1], the “contact vs stomach poison, army worm (in words)” value (“contact vs stomach poison” for short) is “significantly more toxic as stomach poisons than as contact poisons”. Further, the “(Imm/Bait), Armyworm” value in series [1] is recorded as 2. The “Phytotoxicity, Cotton” value in series [3] is “*Bu 3”. In addition, in series [3], the “phytotoxicity to cotton (in words)” value is “so great as to significantly curtail the use of this otherwise highly desirable pesticide on cotton”. Besides, the LD50 in series [5] (Table I, read-out: Rat LD50) is 48.5 mg/kg; in series [5] (setting [7]), 48.5 mg/kg; in series [5] (read-out: rat LD50 (molar)), 330 µmol/kg.

For `CNC(=O)ON=C(C)SC(C)C` [Compound 2], the LC50 in series [1] came to 53 µg/mL (≈ 279 µM); in series [2], 450 µg/mL (≈ 2370 µM); in series [4], 30 µg/mL (≈ 158 µM). For the same compound, the “contact vs stomach poison” value in series [1] is on record as “significantly more toxic as stomach poisons than as contact poisons”. Also, the “(Imm/Bait), Armyworm” value in series [1] is recorded as 3.1. For the same compound, the “Phytotoxicity, Cotton” value in series [3] was “Bu 2”. Further, the LD50 was 7.7 mg/kg in series [5] (Table I, read-out: Rat LD50); 7.7 mg/kg in series [5] (setting [7]); 40 µmol/kg in series [5] (setting [8]).

For the compound `CCSC(C)=NOC(=O)NC` [Compound 3], the LC50 in series [2] was determined as 250 µg/mL (≈ 1420 µM); in series [4], 38 µg/mL (≈ 216 µM). Also, in series [3], the “Phytotoxicity, Cotton” value is recorded as 2. Besides, the LD50 in series [5] (setting [7]) is 17.7 mg/kg.

With `CC(=NOC(=O)N(C)Sc1ccc(C(C)(C)C)cc1)SC(C)C` [Compound 9, O-[N-Methyl-N-[4-(t-Butylphenyl)sulfenyl]carbamoyl] S-Isopropyl Thiolacetohydroximate], the LC50 in series [1] worked out at 5 µg/mL (≈ 14.1 µM); in series [2] it was 42 µg/mL (≈ 118 µM); in series [4] it was 30 µg/mL (≈ 84.6 µM). The “(Imm/Bait), Armyworm” value in series [1] is given as 0.25. In addition, the “(b) relative value of derivative vs parent compound, Rat LD50” value (from here on “(b) relative value of derivative”) in series [6] is listed as 0.2. Moreover, the “mammalian toxicity (in words)” value in series [6] is “substantial reduction in mammalian toxicity”; in series [6] (listed as O-[ N-methyl-N-[4-(t-butylphenyl) sulfenyl] carbamoyl] S-isopropyl thiolacetohyd), “very low level of mammalian toxicity”. Also, the LD50 was determined as 71.3 mg/kg in series [5] (Table I, read-out: Rat LD50); 71.3 mg/kg in series [5] (setting [7]); 200 µmol/kg in series [5] (setting [8]).

On to `CSC(C)=NOC(=O)N(C)Sc1ccc(C)cc1` [Compound 6], for which the LC50 is 10 µg/mL (≈ 35.2 µM) in series [1], 95 µg/mL (≈ 334 µM) in series [2] and 15 µg/mL (≈ 52.7 µM) in series [4]. In addition, in series [1], the “(Imm/Bait), Armyworm” value is recorded as 1.7. Moreover, in series [3], the “Phytotoxicity, Cotton” value is given as “Bu 2”. The “more toxic to mammals than the parent compound” value in series [6] (molar LD50 comparison, vs compound 1) is on record as “at least 50%”. In addition, the “(b) relative value of derivative” value in series [6] amounted to 1.5. The LD50 came to 56.6 mg/kg in series [5] (Table I, read-out: Rat LD50); 56.6 mg/kg in series [5] (setting [7]); 200 µmol/kg in series [5] (read-out: rat LD50 (molar)).

Turning to `CC(=NOC(=O)N(C)Sc1ccc(Cl)cc1)SC(C)C` [Compound 5], the LC50 in series [1] is 4.5 µg/mL (≈ 13.5 µM); in series [2], 58 µg/mL (≈ 174 µM); in series [4], 50 µg/mL (≈ 150 µM). The “(Imm/Bait), Armyworm” value in series [1] turned out to be 0.15. In addition, the “Phytotoxicity, Cotton” value in series [3] was “Bu 2”. For the same compound, the “(b) relative value of derivative” value in series [6] was 0.83. Further, the LD50 in series [5] (Table I, read-out: Rat LD50) is 16.2 mg/kg; in series [5] (setting [7]) it was 16.2 mg/kg; in series [5] (setting [8]), 48 µmol/kg.

Regarding `CSC(C)=NOC(=O)N(C)Sc1ccc(Cl)cc1` [Compound 4], the LC50 in series [1] was determined as 47 µg/mL (≈ 154 µM); in series [2], 500 µg/mL (≈ 1640 µM); in series [4], 70 µg/mL (≈ 230 µM). The “(Imm/Bait), Armyworm” value in series [1] was determined as 0.47. Moreover, in series [3], the “Phytotoxicity, Cotton” value is recorded as “*Bu 3”. Besides, the “(b) relative value of derivative” value in series [6] is reported as 1.43. In addition, the LD50 was 65 mg/kg in series [5] (Table I, read-out: Rat LD50); 65 mg/kg in series [5] (setting [7]); 210 µmol/kg in series [5] (setting [8]).

In the case of `CSC(C)=NOC(=O)N(C)Sc1ccc(C(C)(C)C)cc1` [Compound 8, O-[N-Methyl-N-[4-(t-butylphenyl)sulfenyl]carbamoyl] S-Methyl Acetothiolhydroximate], in series [1], the LC50 is 4 µg/mL (≈ 12.3 µM); the “contact vs stomach poison” value is “outstanding contact poison”; the “(Imm/Bait), Armyworm” value worked out at 1. Also, the LC50 in series [2] was 380 µg/mL (≈ 1160 µM). In series [3], the “Phytotoxicity, Cotton” value is listed as “Bu 2” and the “phytotoxicity to cotton (in words)” value is “moderate leaf burn injury”. In series [4], the LC50 came out at 20 µg/mL (≈ 61.3 µM). In series [6], the “(b) relative value of derivative” value worked out at 0.5 and the “mammalian toxicity (in words)” value is recorded as “extremely low mammalian toxicity”. For the same compound, the “safety relative to the parent (molar)” value in series [6] (vs parent compound, molar basis) is given as “about twice as safe as the parent”. Also, the “less toxic to mammals than its parent compound, weight basis” value in series [6] (vs parent compound, weight basis) is given as “at least 4 times”. In addition, the LD50 in series [5] (Table I, read-out: Rat LD50) was found to be 196 mg/kg. For the same compound, the LD50 in series [5] (setting [7]) was 196 mg/kg. Moreover, the LD50 in series [5] (read-out: rat LD50 (molar)) stood at 600 µmol/kg.

Take `CC(=NOC(=O)N(C)Sc1ccc(C)cc1)SC(C)C` [Compound 7]: the LC50 in series [1] was 14.4 µg/mL (≈ 46.1 µM); in series [2] it was 42 µg/mL (≈ 134 µM); in series [4], 15 µg/mL (≈ 48 µM). Moreover, the “(Imm/Bait), Armyworm” value in series [1] came to 1.2. Besides, in series [6], the “(b) relative value of derivative” value was 0.67. Moreover, the LD50 in series [5] (Table I, read-out: Rat LD50) is 18.7 mg/kg; in series [5] (setting [7]) it was 16.2 mg/kg; in series [5] (setting [8]), 60 µmol/kg.
